Reference: patent publication US20210221784A1, “COMPOUNDS AND COMPOSITIONS FOR THE TREATMENT OF PAIN” (Université de Strasbourg, priority 2018, published 2021)

What was measured:
[1] = target: T1, hNPFFR2 (Homo sapiens, UniProt Q9Y5X5); experiment: Radioligand binding competition, membranes from CHO cells expressing hNPFFR2; details: 0.015 nM [D-Tyr1[125I], N-MePhe3]-NPFF, 1 hr at 25° C., read-out: NPFF2-R Ki
T1 construct: expressed in transfected cells; membranes
Protocol: (§1) Competition experiments with membranes from CHO cells stably expressing hNPFFR1 and hNPFFR2 were performed essentially as described in Elhabazi, K., et al. Neuropharmacology, 2013. 75C, 164-171., Briefly, hNPFFR1 or hNPFFR2 membranes (5 to 10 μg of proteins) were incubated (1 hr at 25° C.; 0.25 mL total volume) with 0.015 nM [D-Tyr1[125I], N-MePhe3]-NPFF (Hartmann Analytic GmbH) in 50 mM HEPES (pH 7.4), 1 mM CaCl2, 1 mM MgCl2 and 0.1% bovine serum albumin. Non-specific binding was determined in the presence of 10 μM RFRP-3. Incubation was terminated by rapid filtration through a 96-well GF/B unifilter apparatus (Perkin Elmer Life and Analytical Sciences, Courtaboeuf, France). Unifilters were washed five times with binding buffer, then dried for 1 h at 65° C. After addition of 40 μL scintillation cocktail (Microscint-O, Perkin Elmer) per well, bound radioactivity was determined on a TopCount scintillation counter (Perkin Elmer).

[2] = target: T2, hNPFFR1 (Homo sapiens, UniProt Q9GZQ6); experiment: Radioligand binding competition, membranes from CHO cells expressing hNPFFR1; details: 0.015 nM [D-Tyr1[125I], N-MePhe3]-NPFF, 1 hr at 25° C., read-out: NPFF1-R Ki
T2 construct: expressed in transfected cells; membranes
Protocol: as §1

[3] = target: T3, human NPFFR1 (hNPFFR1) receptor (Homo sapiens, UniProt Q9GZQ6); experiment: Human NPFFR1 evaluation using BRET biosensors in HEK-293 T cells; type: cell-based; details: hNPFFR1 in HEK-293 T cells, stimulated by EC80 RFRP-3, read-out: IC50 of antagonist activity
T3 construct: expressed in transfected cells; host or cells: HEK-293 T cells, transient co-transfection
How it was run: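 HEK-293 T cells transiently co-expressing hNPFFR1, GαoB and a Gi-effector BRET biosensor pair; agonist read after 10 min compound alone, then antagonism after EC80 RFRP-3 for 10 min. IC50 from 20-point curves over 6 logs, duplicates in two independent experiments.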

[4] = target: T4, hNPFF1R (Homo sapiens, UniProt Q9GZQ6); experiment: Glo Sensor cAMP assay in HEK-293 expressing hNPFF1R; type: cell-based; details: HEK-293 cells expressing hNPFF1R; FIG. 7
T4 construct: expressed in transfected cells
Protocol: The functional characterization of the selected compounds was performed by Glo Sensor cAMP kinetic assay, a validated approach for measuring Gαi/s activation by GPCRs (DiRaddo et al., 2014; Gilissen et al., 2015). HEK-Glo cells expressing either NPFF1 or NPFF2 receptors were suspended (10^6 cells per mF) in physiological Hepes buffer (10 mM HEPES, 0.4 mM NaH2PO4, 137.5 mM NaCl, 1.25 mM MgCl2, 1.25 mM CaCl2, 6 mM KCl, 10 mM glucose and 1 mg/mF bovine serum albumin, pH 7.4) supplemented with 1 mM D-Fuciferine. After equilibration for 2 h at 25° C., luminescence levels were recorded in real time in 96-well plates using a Flexstation^R 3 (Molecular Devices, Sunnyvale Calif., USA). Non-specific effect of the different compounds was evaluated in HEK-Glo cells without any recombinant human RF-amide receptors. To test the agonist activity on NPFF1R and NPFF2R, compounds were injected 15 minutes before addition of forskolin (0.5 μM) and readings were pursued for 90 minutes. To evaluate their antagonist properties, compounds were pre-incubated with cells for 15 minutes before prototypical agonists for NPFF1R (RFRP-3) and NPFF2R (NPFF) receptors. According to their preferential coupling to Gi/o proteins, the stimulation of NPFF1R and NPFF2R by agonists was monitored as a dose-dependent reduction in steady-state luminescence levels, reflecting the inhibition of forskolin-induced cAMP accumulation. Experiments were performed at 25° C. in the presence of 0.5 mM IBMX to prevent the degradation of cAMP by phosphodiesterases.

[5] = system: C57BF6/N male mice; experiment: Fentanyl-induced hyperalgesia, tail immersion test; type: in vivo; details: FIG. 6B
[6] = system: C57BF6/N male mice; experiment: Neuropathic pain model (chronic constriction injury), Von Frey test; type: in vivo; details: morphine 3 mg/kg sc. alone or 1j 5 mg/kg p.o. alone; FIG. 4B
[7] = system: C57BF6/N male mice; experiment: Incisional pain model, Von Frey test; type: in vivo; details: morphine 2.5 mg/kg sc. alone or 1j 5 mg/kg po alone; FIG. 3B
[8] = system: C57BF6/N male mice; experiment: Morphine-induced hyperalgesia and tolerance, tail immersion test; type: in vivo
[9] = system: rat; details: repeated administration of opiate analgesics; cited from earlier work
[10] = system: NPFF receptor; details: Simonin et al., PNAS (2006); cited from earlier work

T3 sequence (Q9GZQ6 whole entry): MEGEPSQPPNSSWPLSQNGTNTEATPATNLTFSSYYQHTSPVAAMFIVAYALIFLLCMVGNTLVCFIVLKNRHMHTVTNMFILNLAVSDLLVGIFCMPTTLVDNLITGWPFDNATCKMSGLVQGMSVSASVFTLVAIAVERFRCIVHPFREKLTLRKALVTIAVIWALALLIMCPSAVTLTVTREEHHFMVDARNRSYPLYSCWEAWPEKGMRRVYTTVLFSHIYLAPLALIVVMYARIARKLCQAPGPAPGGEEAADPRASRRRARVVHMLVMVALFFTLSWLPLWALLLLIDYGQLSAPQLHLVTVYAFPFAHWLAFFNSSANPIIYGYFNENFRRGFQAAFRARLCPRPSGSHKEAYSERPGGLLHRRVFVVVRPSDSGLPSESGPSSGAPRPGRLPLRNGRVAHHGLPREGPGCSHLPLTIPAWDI
T2 sequence (Q9GZQ6 whole entry): as above
T1 sequence (Q9Y5X5 whole entry): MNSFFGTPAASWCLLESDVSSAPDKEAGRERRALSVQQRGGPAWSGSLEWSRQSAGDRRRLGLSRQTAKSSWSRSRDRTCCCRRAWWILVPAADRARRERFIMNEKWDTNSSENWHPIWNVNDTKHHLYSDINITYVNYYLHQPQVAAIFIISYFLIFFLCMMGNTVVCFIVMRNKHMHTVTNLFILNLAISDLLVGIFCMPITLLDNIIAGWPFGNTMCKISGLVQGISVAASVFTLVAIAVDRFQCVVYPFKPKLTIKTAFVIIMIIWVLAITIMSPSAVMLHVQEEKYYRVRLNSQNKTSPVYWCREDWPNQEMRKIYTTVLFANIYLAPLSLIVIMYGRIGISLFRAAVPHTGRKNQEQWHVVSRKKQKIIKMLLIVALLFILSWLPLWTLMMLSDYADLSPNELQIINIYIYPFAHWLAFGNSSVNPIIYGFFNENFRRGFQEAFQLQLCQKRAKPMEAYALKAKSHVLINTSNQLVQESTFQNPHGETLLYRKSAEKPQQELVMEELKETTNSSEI
T4 sequence (Q9GZQ6 whole entry): as the sequence (Q9GZQ6 whole entry) above

Compound | Ki [1] | Ki [2] | IC50 [3] | further results
COc1cc(F)ccc1-c1ccc(N)nc1N [Compound 2k, 3-(4-fluoro-2-methoxyphenyl) pyridine-2,6-diamine] | 3200 nM | 27.6 nM | 500 to 1000 nM | 
Nc1ccc(-c2cccc(Cl)c2Cl)cn1 [Compound 6a, 5-(2,3-dichlorophenyl)pyridin-2-amine] | 4200 nM | 577 nM | > 1000 nM | 
Nc1ccc(-c2ccccc2-c2ccccc2)c(N)n1 [Compound 1r, 3-([1,1′-biphenyl]-2-yl)pyridine-2,6-diamine] | 700 nM | 20.7 nM | 100 to 500 nM | 
CCCc1nc(N)ccc1-c1ccccc1OC [Compound 6g, 5-(2-methoxyphenyl)-6-propylpyridin-2-amine] | 470 nM | 6.3 nM | 100 to 500 nM | 
COc1ccccc1-c1ccc(N)nc1C(C)C [Compound 6h, 6-isopropyl-5-(2-methoxyphenyl)pyridin-2-amine] | 1500 nM | 35.7 nM | 500 to 1000 nM | 
COc1ccc(-c2ccc(N)nc2N)c(OC)c1 [Compound 2m] | 1870 nM | 45.7 nM | > 1000 nM | 
CCCCOc1ccccc1-c1ccc(N)nc1N [Compound 2e, 3-(2-butoxyphenyl)pyridine-2,6-diamine] | 1800 nM | 10.5 nM | 100 to 500 nM | 
CCc1nc(N)ccc1-c1cccc(Cl)c1Cl [Compound 6c, 5-(2,3-dichlorophenyl)-6-ethylpyridin-2-amine] | 800 nM | 25 nM | 500 to 1000 nM | 
CNc1nc(N)ccc1-c1cccc(Cl)c1Cl [Compound 5a, 3-(2,3-dichlorophenyl)-N2-methylpyridine-2,6-diamine] | 2300 nM | 81.2 nM | > 1000 nM | 
Nc1ccc(-c2ccccc2OC2CCCC2)c(N)n1 [Compound 2i, 3-(2-(cyclopentyloxy)phenyl)pyridine-2,6-diamine] | 280 nM | 4 nM | 100 to 500 nM | 
CCOc1ccccc1-c1ccc(N)nc1N [Compound 2d, 3-(2-ethoxyphenyl)pyridine-2,6-diamine] | 700 nM | 15 nM | 100 to 500 nM | 
Nc1ccc(-c2ccc(Cl)c(Cl)c2)c(N)n1 [Compound 1n, 3-(3,4-dichlorophenyl) pyridine-2,6-diamine] | 2560 nM | 313 nM | > 1000 nM | 
CCc1nc(N)ccc1-c1ccccc1OC [Compound 6d, 6-ethyl-5-(2-methoxyphenyl)pyridin-2-amine] | 960 nM | 15.2 nM | 100 to 500 nM | 
Cc1ccccc1-c1c(C)cc(N)nc1N [Compound 8b, 4-methyl-3-(o-tolyl)pyridine-2,6-diamine] | 4600 nM | 183 nM | > 1000 nM | 
Nc1ccc(Cc2ccccc2Cl)c(N)n1 [Compound 10e, 3-(2-chlorobenzyl)pyridine-2,6-diamine] | 450 nM | 3.7 nM | 100 to 500 nM | 
CC(C)COc1ccccc1-c1ccc(N)nc1N [Compound 2g, 3-(2-isobutoxyphenyl) pyridine-2,6-diamine] | 700 nM | 9 nM | 100 to 500 nM | 
Nc1ccc(-c2cccc(Cl)c2Cl)c(NCc2ccccc2)n1 [Compound 5d, N2-benzyl-3-(2,3-dichlorophenyl)pyridine-2,6-diamine] | 1900 nM | 84 nM | > 1000 nM | 
Cc1ccccc1-c1ccc(N)nc1N [Compound 1c, 3-(o-tolyl)pyridine-2,6-diamine] | 30000 nM | 23 nM | 100 to 500 nM | antagonist activity: effect on dose response curve of NPVF (RFRP-3), forskolin-stimulated cAMP [4]: antagonist activity similar as compound 1j; fentanyl hyperalgesia (hyperalgesia index d1 to d4) ([5]; 0.2 mg/kg sc. 20 min before fentanyl 4×60 μg/kg sc.): prevented fentanyl hyperalgesia; fentanyl hyperalgesia (hyperalgesia index d1 to d4) ([5]; 1 mg/kg sc. 20 min before fentanyl 4×60 μg/kg sc.): prevented fentanyl hyperalgesia
CN1CC[C@]23c4c5ccc(O)c4O[C@H]2[C@@H](O)C=C[C@H]3[C@H]1C5.Cl [morphine, Morphine hydrochloride, reference compound] |  |  |  | mechanical allodynia after CCI (allodynia index d11-d21), drug alone [6]: slightly but not significantly prevented the mechanical allodynia; mechanical allodynia after paw incision (allodynia index d1-d6), drug alone [7]: failed to prevent significantly the mechanical allodynia; Hyperalgesia index (HI) d1 to d7 ([8]; daily morphine 10 mg/kg s.c., 1j 5 mg/kg oral or vehicle before morphine, FIG. 2B): −16.2±2; peak of analgesia at day 8 ([8]; morphine 5 mg/kg s.c. alone or combined with 1j 5 mg/kg p.o., after chronic morphine, FIG. 2C): 9±0.8; peak of analgesia at day 0 ([8]; morphine 5 mg/kg s.c. alone or combined with 1j 5 mg/kg p.o., FIG. 2C): 17±0.8
COc1cccc(-c2ccc(N)nc2N)c1OC [Compound 2l, 3-(2,3-dimethoxyphenyl) pyridine-2,6-diamine] | 900 nM | 26 nM | > 1000 nM | 
Nc1ccc(-c2cccc(Cl)c2)c(N)n1 [Compound 1h, 3-(3-chlorophenyl)pyridine-2,6-diamine] | 300 nM | 90 nM | 500 to 1000 nM | 
CC(C)Oc1ccccc1-c1ccc(N)nc1N [Compound 2f, 3-(2-isopropoxyphenyl)pyridine-2,6-diamine] | 2100 nM | 11.3 nM | 100 to 500 nM | 
Nc1ccc(-c2ccccc2C(F)(F)F)c(N)n1 [Compound 1f, 3-(2-(trifluoromethyl)phenyl) pyridine-2,6-diamine] | 6700 nM | 22.4 nM | 500 to 1000 nM | 
Nc1ccc(Cc2ccc(Cl)cc2Cl)c(N)n1 [Compound 10f, 3-(2,4-dichlorobenzyl)pyridine-2,6-diamine] | 500 nM | 3.7 nM | 100 to 500 nM | 
N^α-adamantan-1-yl-L-Arg-L-Phe-NH2 acetate [RF9] |  |  |  | antihyperalgesic activity in vivo [9]: reversing hyperalgesia induced by the repeated administration of opiate analgesics; NPFF receptor antagonist potency [10]: first nanomolar NPFF receptor antagonist
Nc1ccc(-c2cc(Cl)cc(Cl)c2)c(N)n1 [Compound 1o, 3-(3,5-dichlorophenyl) pyridine-2,6-diamine] | ~5000 nM | ~500 nM | > 1000 nM | 
COCc1ccccc1-c1ccc(N)nc1N [Compound 1g, 3-(2-(methoxymethyl)phenyl) pyridine-2,6-diamine] | 1200 nM | 58 nM | 500 to 1000 nM | 
COc1ccccc1-c1ccc(N)nc1C1CC1 [Compound 6i, 6-cyclopropyl-5-(2-methoxyphenyl)pyridin-2-amine] | 1400 nM | 31 nM | 500 to 1000 nM | 
